A word on the MTD: it is the highest dose tested that stayed within the study's limit of toxicity. Higher therefore signals better tolerability. As a reminder, the half-life is how long it takes for the measured level to halve. Broadly, the Cmax is the peak of the concentration-time curve. For orientation: AUC means the area under the concentration-time curve, a measure of exposure.

Entries after “also recorded” stand apart in the source; their conditions may differ. Where two headings read alike, the source gives them in different places. Square brackets hold non-standard residues; d marks the D form. Peptide text beside a SMILES is read from it. * marks the point of attachment. ξ: configuration not given here. Chlorambucil = O=C(CCCc1ccc(N(CCCl)CCCl)cc1)*; ξCha = NC(CC1CCCCC1)C(=O)O

In one data set the test system is mouse livers. Nature of the data set: Liver toxicity: H&E histology and plasma liver enzymes. Type of data set: in vivo. The settings on record: mt-Cbl 15 mg/kg, Cbl 3.7 mg/kg every other day for 21 days. As for the experimental part:
Mice were treated every other day with equimolar doses of either mt-Cbl (15 mg/kg), Cbl (3.7 mg/kg) or vehicle control for 21 days by Kard Scientific (Beverly, MA). Following sacrifice, mouse livers and K562 xenograft tumors were fixed in 10% formalin overnight and then transferred to 70% ethanol. Samples were then paraffin-embedded, sectioned and stained in a standard manner by the Pathology Research Program Laboratory at Toronto General Hospital. Biotin-conjugated secondary antibodies, avidin horseradish peroxidase and the chromogenic diaminobenzidine tetrahydrochloride (DAB) were used for detection. Slides were imaged at 20× and then analyzed using Aperio ImageScope Software (Aperio Technologies, Vista, California). Positive pixels were identified and counted using the Positive Pixel Count V9 algorithm in this software. Quantification was performed on ten representative squares of 2500×2500 μm each and an average was calculated. % Positive Pixels was determined by dividing the positive pixel count by the total number of pixels analyzed. A standard hematoxylin and eosin (H&E) staining was performed on liver sections and these were reviewed for hepatotoxicity and injury by a pathologist with liver expertise. In addition, liver toxicity was evaluated though determination of levels of specific liver enzymes. Mice were treated every other day with equimolar doses of either mt-Cbl (15 mg/kg), Cbl (3.7 mg/kg) or vehicle control for 21 days. Three days after the final dose, mouse plasma samples were tested for levels of bilirubin, alkaline phosphatase and aspartate transaminase in a standard manner.

The test system of data set [1] is caspase-3 and PARP-1 cleavage in HeLa cells. Type of data set: cell-based.
The nature of another data set: Maximal tolerated dose. The note with it: mouse, in vivo, ip; NOD/SCID mice, intraperitoneal. The protocol:
Non-obese diabetic/severe combined immunodeficiency (NOD/SCID) mice were treated intraperitoneally with increasing concentrations of Cbl (10–500 mg/kg) or mt-Cbl (10–50 mg/kg). Animals were monitored daily for weight loss, lethargy and other signs of physical discomfort. […] All animal studies were carried out according to the regulations of the Canadian Council on Animal Care and with the approval of the Ontario Cancer Institute Animal Ethics Review board or the Faculty of Medicine Animal Care Committee at the University of Toronto.

For data set [2], the system named is caspase 3/7 activity in HeLa cells. Briefly: Caspase-Glo 3/7 activity assay. Type of data set: cell-based. The note with it: 6 hours. The protocol: (§1) HeLa cells were seeded at 7500 cells/well a day prior to experiments in white flat clear-bottom 96-well plates (Greiner Bio one). Cells were incubated with Cbl, Cbl conjugates, staurosporin or digitonin as appropriate at indicated concentrations. Cellular ATP levels and protease activity were measured after a 90 minute incubation using the Mitochondrial ToxGlo assay (Promega) as per manufacturer's instructions. To assess caspase 3/7 activity, cells were incubated with compound for 6 hours prior to measurement with the Caspase-Glo® 3/7 Assay (Promega) as per manufacturer's instructions.

The conditions of data set [3]: in water; cited from earlier work.
Data set [4] is described as follows: Biodistribution in K562 xenograft mice. Type of data set: in vivo, mouse. The settings on record: K562 xenograft NOD/SCID mice; mt-Cbl 15 mg/kg, Cbl 100 mg/kg i.p. daily for 10 days. As for the experimental part:
K562 cells (3×10^6) were injected subcutaneously into the flanks of ten NOD/SCID mice (Ontario Cancer Institute, Toronto, ON). Palpable tumours were formed 7 days after injection and mice were then treated daily for 10 days with Cbl (100 mg/kg) or mt-Cbl (15 mg/kg) by intraperitoneal injection. Mice were sacrificed 17 days after injection of cells and organs were excised for analysis of Cbl and mt-Cbl biodistribution profiles. The liver, kidneys, spleen, heart, lungs and brain were removed from mice following sacrifice and immediately frozen in dry ice until analysis. Tissues were homogenized in four volumes of ice-cold acetonitrile and centrifuged at 10,000×g for 10 min, 4°C. The resulting supernatant was analyzed via HPLC-MS/MS to determine drug concentrations in each tissue.

A short description of data set [5]: Rate of hydrolysis in saline or plasma (HPLC-MS/MS). The settings on record: 37°C. Type of data set: in vitro ADME, mouse. The protocol:
Stability of mt-Cbl and MPP in mouse plasma: Thiazole orange-labelled conjugates were incubated in mouse plasma for three weeks at room temperature. The stability of these compounds was then assessed via reverse-phase HPLC. A single peak with the identical retention time to a fresh conjugate control was considered to be a positive result for stability in mouse plasma. Rate of mt-Cbl and Cbl hydrolysis in saline or plasma: Cbl and mt-Cbl were incubated in saline or plasma for 0 h, 0.5 h, 1 h, 1.5 h, 2 h, 2.5 h and 3 h at 37°C. Following this, plasma proteins were precipitated in four volumes of ice-cold acetonitrile and centrifuged at 10,000×g for 10 min, 4°C. The resulting supernatant was analyzed via HPLC-MS/MS to determine active drug concentrations in each sample.

Data set [6] can be described thus: Pharmacokinetic study, plasma levels by HPLC-MS/MS. Type of data set: in vivo. The settings on record: mouse, ip, CD1 mice, single dose 10 mg/kg intraperitoneal; for AUC: unit inferred. As for the experimental part:
Animal handling and dose administration was performed by Kard Scientific (Beverly, MA). Six CD1 mice were treated with a single dose of 10 mg/kg mt-Cbl or Cbl via intraperitoneal injection. Blood samples were collected at 15 min, 30 min, 1 h, 2 h, 4 h and 8 h in heparin-treated tubes. Samples were kept on ice until centrifugation at 1,500 rpm for 20 min, 4°C and the resulting plasma supernatants were transferred to fresh tubes. Plasma proteins were precipitated with four volumes of ice-cold acetonitrile and spun at 10,000×g for 10 min, 4°C. The resulting supernatant was analyzed via HPLC-MS/MS to determine plasma concentrations of Cbl and mt-Cbl.

In another data set the test system is leukemia. Set-up: method as in PMID 8241831. The note with it: cited from earlier work.
Data set [7] is described as follows: Alkylation activity with 4-(4-nitrobenzyl)pyridine. The note with it: absorbance of 4-(4-nitrobenzyl)pyridine. From the text: Supplementary file pone.0060253.s005.pdf: Figure S5 Characterization of Cbl-TPP. (a) Chemical structure of Cbl-TPP . Cbl was conjugated to a triphenylphosphonium ion to generate Cbl-TPP. (b) Alkylation activity of Cbl, mt-Cbl and Cbl-TPP.

Data set [8] has as its system 143B cells and 143B ρ° cells. Briefly: CCK-8 cell viability in 143B parental and ρ° cells. Type of data set: cell-based. The settings on record: overnight incubation, various doses.
Data set [9] deals with mitochondrial proteins of HL-60 cells. Nature of the data set: Cbl-conjugate labeling of mitochondrial proteins (immunoblot). Type of data set: cell-based. The settings on record: HL60 cells, 30 min; biotin-labeled mt-Cbl 1.5 μM or Cbl-TPP 10 uM. The protocol:
HL-60 cells (25 million cells) were incubated with biotin-labeled mt-Cbl peptide (Biotin-mt-Cbl) (0, 1.5 μM) or Cbl-TPP (10 uM) for 30 min, after which the cells were collected. The cells were then washed with ice-cold PBS, and their mitochondria were isolated using Mitochondrial Isolation Kit for Mammalian Cells (Thermo Scientific). The mitochondrial pellets were then lysed using RIPA buffer plus protease inhibitors for 30 min. at 4°C and the total protein concentration determined using BCA assay. Lysates (10 μg of total protein) were then loaded onto 7% gels and run at 30 V for 30 min. and 150 V for 1 hour using a tris-tricine buffer system (Cathode buffer: 0.1 M Tris, 0.1 M Tricine, and 0.1% SDS, Anode buffer: 0.2 M Tris-Cl, pH8.9). Immunoblotting was continued as described previously using biotin antibody to detect the biotin tag on mt-Cbl or TPP antibody to detect Cbl-TPP.
In general terms: In western blotting, separated proteins are transferred to a membrane and probed.

The test system of a further data set is mtDNA of HL-60 cells. Nature of the data set: Cbl-conjugate labeling of mtDNA (dot blot with TPP antibody). Type of data set: cell-based. The settings on record: 10 uM, 30 min. As for the experimental part: HL-60 cells (25 million cells) were incubated with Cbl-TPP (10 uM) for 30 min, after which the cells were collected. The cells were then washed with ice-cold PBS, and their mitochondria were isolated using Mitochondrial Isolation Kit for Mammalian Cells (Thermo Scientific). The mtDNA was extracted from the mitochondrial pellets using AllPrep DNA/RNA Mini Kit (QIAGEN). DNA concentration was measured using a NanoDrop 1000 Spectrophotometer (Thermo Scientific) and then normalized (10 ng/μl). After this, a nitrocellulose membrane was spotted with untreated and treated DNA and UV crosslinked using UV Stratalinker 1800 (Stratagene) The membrane was blocked with 5% BSA-TBST for 1 hr at room temperature and then probed with TPP antibody (1∶5000) at 4°C overnight. Then the membrane was washed and visualized with chemiluminescence detection (GE Amersham).

Data set [10] relates to HeLa cells. Briefly: Mitochondrial ToxGlo assay, protease activity and cellular ATP levels. The note with it: 90 minutes, various doses (over EC50). Type of data set: cell-based. As for the experimental part: as §1
Data set [11] has as its system HeLa cells. The settings on record: 18 hours treatment.
Data set [12] is described as follows: Stability in mouse plasma over three weeks (HPLC). The settings on record: three-week incubation, HPLC single peak.

For `O=C(O)CCCc1ccc(N(CCCl)CCCl)cc1` [Cbl, chlorambucil, reference compound], in the data set with mouse livers, the “Liver histology (H&E)” value is reported as “histologically normal with no features of injury or toxicity”; the “Plasma levels of bilirubin, alkaline phosphatase and aspartate aminotransferase” value is on record as “No significant change”. Besides, in data set [1] (HeLa, Cbl 750 μM, 8 hours, Q-VD-Oph 20 μM pretreatment), the “Cleavage of caspase-3 and PARP-1” value is “induced the cleavage and activation of caspase-3”. In the data set “Maximal tolerated dose”, this compound yielded an MTD of 400 mg/kg. For the same compound, the Caspase-3/7 activity entry in data set [2] is “increase in caspase-3/7 activity in a dose-dependent manner”. Further, the half-life in data set [3] was 0.5 h. For the same compound, in data set [4], the Accumulation in liver entry is “site of greatest accumulation” and the Levels in kidneys entry was “very low levels”. In data set [5] (mouse plasma), this compound showed a half-life of 1 h. This compound had a half-life in data set [5] (mouse, saline) of 1 h. In [6], this compound registered a Cmax of 200 ng/mL, a half-life of 0.75 h and an AUC of 147 ng·h/mL. Further, in the data set with leukemia, the “Initial response rate in patients” value is 40–60%.

For `O=C(CCCc1ccc(N(CCCl)CCCl)cc1)NCCC[P+](c1ccccc1)(c1ccccc1)c1ccccc1` [Cbl-TPP], the “Alkylation activity (rate of alkylation)” value in data set [7] is on record as “retained alkylation activity very similar to that observed with the MPP conjugated form of mt-Cbl; also recorded: reduces its alkylation activity”. Further, in [8], the “Toxicity in 143B parental versus mtDNA-free ρ° derivative” value is reported as “overlapping toxicity profiles”. In data set [9], the “Alkylation of mitochondrial proteins” value is “Alkylation of both mtDNA and proteins”. Moreover, the “Alkylation of mtDNA” value with mtDNA of HL-60 cells is “Alkylation of both mtDNA and proteins”. Moreover, in the data set with HeLa cells [10], the “Cellular ATP level” value is listed as “drastic drop in ATP cellular levels” and the Protease activity result is on record as “significant increase in protease activity”.

In the case of `CC(=O)NC(CC1CCCCC1)C(=O)N[C@H](CCCNC(=N)N)C(=O)NC(CC1CCCCC1)C(=O)N[C@H](CCCNC(=N)N)C(=O)NC(CC1CCCCC1)C(=O)N[C@H](CCCNC(=N)N)C(N)=O` (stereo partly drawn) [MPP] (Ac-[ξCha][dR][ξCha][dR][ξCha][dR]-NH2; N-terminus and C-terminus assumed), the “Stability in mouse plasma” value is “stable”.

Take `CC(C)[C@H](NC(=O)c1ccc2ccccc2n1)C(=O)N[C@@H](CC(=O)O)C(=O)COc1c(F)cccc1F` [Q-VD-Oph]: the “Cleavage of caspase-3 and PARP-1” value in [1] is “suppressed the effects of Cbl treatment”.

Regarding `N=C(N)NCCC[C@@H](NC(=O)C(CC1CCCCC1)NC(=O)[C@@H](CCCNC(=N)N)NC(=O)C(CC1CCCCC1)NC(=O)[C@@H](CCCNC(=N)N)NC(=O)C(CC1CCCCC1)NC(=O)CCCc1ccc(N(CCCl)CCCl)cc1)C(N)=O` (stereo partly drawn) [mt-Cbl] (Chlorambucil-[ξCha][dR][ξCha][dR][ξCha][dR]-NH2), in the data set on mouse livers, the “Liver histology (H&E)” value is “histologically normal with no features of injury or toxicity”; the “Plasma levels of bilirubin, alkaline phosphatase and aspartate aminotransferase” value was “No significant change”. Moreover, in the data set “Maximal tolerated dose”, the MTD stood at 50 mg/kg. Further, the LD50 in the data set on HeLa cells [11] (HeLa after siEXOG transfection) is 4.7 µM. For the same compound, the LD50 in the data set on HeLa cells [11] (HeLa after siNT (untargeted siRNA control) transfection) turned out to be 3.5 µM. In data set [4], the Accumulation in liver entry was “site of greatest accumulation”, the “Accumulation in tumors compared to Cbl” value was ~250 fold and the Levels in kidneys entry was “very low levels”. Further, the “Half-life (hydrolysis)” value in data set [5] (mouse plasma) is 1 h. In addition, in [5] (mouse, plasma, saline), the half-life is 1 h. In data set [6] (in vivo), this compound gave a maximum concentration (Cmax) of 800 ng/mL, a half-life of 6 h and an area under the curve (AUC) of 3560 ng·h/mL. Also, in data set [12], the “Stability in mouse plasma” value is “stable in mouse plasma”.

(Values after article PMC3621862, “Re-Directing an Alkylating Agent to Mitochondria Alters Drug Target and Cell Death Mechanism” (PLoS ONE, 2013).)
